Laboratory results from patent US5712297A, “Piperdine compounds and their preparation and use” (Novo Nordisk A/S, priority 1989, dated 1998).
Structures can show the parent of a compound that is named as a salt.

Molecular target: muscarinic acetylcholine receptors
Assay: Inhibition of specific binding of 3H-Oxotremorine-M (3H-Oxo)
Set-up: species or system rat (male Wistar
Conditions: rat cortex; 3H-Oxotremorine 1.0 nM; 20 mM Hepes pH 7.4; 30 min at 25° C.
Procedure: The pharmacological properties of the compounds of the present invention (Formula I) can be illustrated by determining their capability to inhibit the specific binding of ^3 H-Oxotremorine-M (^3 H-Oxo).
^3 H-Oxo labels muscarinic receptors in the CNS (with a preference for agonist domaines of the receptors). Three different sites are labelled by 3H-Oxo. These sites have affinity of 1.0, 20 and 3000 nM, respectively. Using the present experimental conditions only the high and medium affinity sites are determined. The inhibitory effects of compounds on ^3 H-Oxo binding reflects the affinity for muscarinic acetylcholine receptors.
All preparations are performed at 0°-4° C. unless otherwise indicated. Fresh cortex (0.1-1 g) from male Wistar rats (150-250 g) is homogenized for 5-10 s in 10 ml 20 mM Hepes pH: 7.4, with an Ultra-Turrax homogenizer. The homogenizer is rinsed with 10 ml of buffer and the combined suspension centrifuged for 15 min at 40,000×g. The pellet is washed three times with buffer. In each step the pellet is homogenized as before in 2×10 ml of buffer and centrifuged for 10 min at 40,000×g. The final pellet is homogenized in 20 mM Hepes pH: 7.4 (100 ml per g of original tissue) and used for binding assay. Aliquots of 0.5 ml is added 25 μl of test solution and 25 μl of ^3 H-Oxotremorine (1.0 nM, final concentration) mixed and incubated for 30 min at 25° C. Non-specific binding is determined in triplicate using Arecoline (1 μg/ml, final concentration) as the test substance. After incubation samples are added 5 ml of ice-cold buffer and poured directly onto Whatman GF/C glass fiber filters under suction and immediately washed 2 times with 5 ml of ice-cold buffer. The amount of radioactivity on the filters are determined by conventional liquid scintillation counting. Specific binding is total binding minus non-specific binding. Test substances are dissolved in 10 ml water (if necessary heated on a steam-bath for less than 5 minutes) at a concentration of 2.2 mg/ml. 25-75% inhibition of specific binding must be obtained before calculation of IC50.
The test value will be given as IC50 (the concentration (ng/ml) of the test substance which inhibits the specific binding of ^3 H-Oxo by 50%). [formula] where Co is specific binding in control assays and Cx is the specific binding in the test assay. (The calculations assume normal mass-action kinetics).

Row | SMILES | Inhibition in vitro OXO BINDING (IC50: concentration which inhibits the specific binding of 3H-Oxo by 50%) [ng/mL]
1 | CCC/C=C\COc1nsnc1C1=CCCN(C)C1.O=C(O)C(=O)O [Compound 32, cis-3-(4-(2-hexenyloxy)-1,2,5-thiadiazol-3-yl)-1,2,5,6-tetrahydro-1-methylpyridine oxalate] | 1.4
2 | CCC/C=C/COc1nsnc1C1=CCCN(C)C1.O=C(O)C(=O)O [Compound 35, trans-3-(4-(2-hexenyloxy)-1,2,5-thiadiazol-3-yl)-1,2,5,6-tetrahydro-1-methylpyridine oxalate] | 0.6
3 | CN1CCC=C(c2cnsn2)C1.O=C(O)C(=O)O [Compound 36, 3-(1,2,5-thiadiazol-3-yl)-1,2,5,6-tetrahydro-1-methylpyridine oxalate] | 0.3
4 | CCCCCCOc1nsnc1C1=CCCNC1.O=C(O)C(=O)O [Compound 37, 1,2,5,6-tetrahydro-3-(4-hexyloxy-1,2,5-thiadiazol-3-yl) pyridine oxalate] | 6.3
5 | COCCOCCOc1nsnc1C1=CCCN(C)C1.O=C(O)C(=O)O [Compound 38, 3-(4-(2-(2-methoxyethoxy)ethoxy)-1,2,5-thiadiazol-3-yl)-1,2,5,6-tetrahydro-1-methylpyridine oxalate] | 7.4
6 | CCOCCOc1nsnc1C1=CCCN(C)C1.O=C(O)C(=O)O [Compound 40, 3-(4-(2-ethoxyethoxy)-1,2,5-thiadiazol-3-yl)-1,2,5,6-tetrahydro-1-methylpyridine oxalate] | 3.7
7 | CCCCOCCOc1nsnc1C1=CCCN(C)C1.O=C(O)C(=O)O [Compound 41, 3-(4-(2-butoxyethoxy)-1,2,5-thiadiazol-3-yl)-1,2,5,6-tetrahydro-1-methylpyridine oxalate] | 1.3
8 | CCCCOCCOCCOc1nsnc1C1=CCCN(C)C1.O=C(O)C(=O)O [Compound 42, 3-(4-(2-(2-butoxyethoxy)ethoxy)-1,2,5-thiadiazol-3-yl)-1,2,5,6-tetrahydro-1-methylpyridine oxalate] | 7.0
9 | CCOCCOCCOc1nsnc1C1=CCCN(C)C1.O=C(O)C(=O)O [Compound 43, 3-(4-(2-(2-ethoxyethoxy)ethoxy)-1,2,5-thiadiazol-3-yl)-1,2,5,6-tetrahydro-1-methylpyridine oxalate] | 4.0
10 | CC1CCN(c2nsnc2C2=CCCN(C)C2)CC1.O=C(O)C(=O)O [Compound 44, 3-(4-(4-methylpiperidino)-1,2,5-thiadiazol-3-yl)-1,2,5,6-tetrahydro-1-methylpyridine oxalate] | 14
11 | CN1CCC=C(c2nsnc2N2CCOCC2)C1 [Compound 45, 3-(4-morpholino-1,2,5-thiadiazol-3-yl)-1,2,5,6-tetrahydro-1-methylpyridineoxalate] | 115
12 | CCCCCCNc1nsnc1C1=CCCN(C)C1 [Compound 46, 3-(4-hexylamino-1,2,5-thiadiazol-3-yl)-1,2,5,6-tetrahydro-1-methylpyridineoxalate] | 18
13 | CCCSc1nsnc1C1=CCCN(C)C1 [Compound 47, 3-(4-propylthio-1,2,5-thiadiazol-3-yl)-1,2,5,6-tetrahydro-1-methylpyridineoxalate] | 0.3
14 | CCCCSc1nsnc1C1=CCCN(C)C1.O=C(O)C(=O)O [Compound 48, 3-(4-butylthio-1,2,5-thiadiazol-3-yl)-1,2,5,6-tetrahydro-1-methylpyridine oxalate] | 0.6
15 | CSc1nsnc1C1=CCCN(C)C1 [Compound 49, 3-(4-methylthio-1,2,5-thiadiazol-3-yl)-1,2,5,6-tetrahydro-1-methylpyridineoxalate] | 0.7
16 | CN1CCC=C(c2nonc2N)C1.O=C(O)C(=O)O [Compound 50, 3-(4-amino-1,2,5-oxadiazol-3-yl)-1,2,5,6-tetrahydro-1-methylpyridine oxalate] | 300

Row | SMILES | Inhibition in vitro OXO BINDING (IC50: concentration which inhibits the specific binding of 3H-Oxo by 50%) [ng/mL]
17 | CC(=O)Nc1nonc1C1=CCCN(C)C1 [Compound 51, 3-(4-acetylamino-1,2,5-oxadiazol-3-yl)-1,2,5,6-tetrahydro-1-methylpyridineoxalate] | 300
18 | CN1CCC=C(c2nonc2Cl)C1.O=C(O)C(=O)O [Compound 52, 3-(4-chloro-1,2,5-oxadiazol-3-yl)-1,2,5,6-tetrahydro-1-methylpyridine oxalate] | 65
19 | CN1CCC=C(c2cnon2)C1.O=C(O)C(=O)O [Compound 53, 3-(1,2,5-oxadiazol-3-yl)-1,2,5,6-tetrahydro-1-methylpyridine oxalate] | 1.2
20 | CCCCCCOc1nonc1C1=CCCN(C)C1.O=C(O)C(=O)O [Compound 54, 3-(4-hexyloxy-1,2,5-oxadiazol-3-yl)-1,2,5,6-tetrahydro-1-methylpyridine oxalate] | 20
21 | CCCCOc1nonc1C1=CCCN(C)C1.O=C(O)C(=O)O [Compound 55, 3-(4-butyloxy-1,2,5-oxadiazol-3-yl)-1,2,5,6-tetrahydro-1-methylpyridine oxalate] | 8
22 | CCC#CCCOc1nonc1C1=CCCN(C)C1.O=C(O)C(=O)O [Compound 56, 3-(4-(3-hexynyloxy)-1,2,5-oxadiazol-3-yl)-1,2,5,6-tetrahydro-1-methylpyridine oxalate] | 2.1
23 | CCCCCCCc1nsnc1C1=CCCN(C)C1 [Compound 58, 3-(4-heptyl-1,2,5-thiadiazol-3-yl)-1,2,5,6-tetrahydro-1-methylpyridinium oxalate] | 50
24 | CCCCCCCCc1nsnc1C1=CCCN(C)C1 [Compound 60, 3-(4-octyl-1,2,5-thiadiazol-3-yl)-1,2,5,6-tetrahydro-1-methylpyridinium oxalate] | 164
25 | CC(C)Cc1nsnc1C1=CCCN(C)C1 [Compound 61, 3-(4-isobutyl-1,2,5-thiadiazol-3-yl)-1,2,5,6-tetrahydro-1-methylpyridinium oxalate] | 50
26 | CN1CCC=C(c2nsnc2CC2CC2)C1 [Compound 62, 3-(4-cyclopropylmethyl-1,2,5-thiadiazol-3-yl)-1,2,5,6-tetrahydro-1-methylpyridinium oxalate] | 32
27 | CCCc1nsnc1C1=CCCN(C)C1 [Compound 63, 3-(4-propyl-1,2,5-thiadiazol-3-yl)-1,2,5,6-tetrahydro-1-methylpyridinium oxalate] | 25
28 | CCCCCCCCSc1nsnc1C1=CCCN(C)C1.O=C(O)C(=O)O [Compound 64, 3-(4-octylthio-1,2,5-thiadiazol-3-yl)-1,2,5,6-tetrahydro-1-methylpyridine oxalate] | 58
29 | CCSc1nsnc1C1=CCCN(C)C1.O=C(O)C(=O)O [Compound 65, 3-(4-ethylthio-1,2,5-thiadiazol-3-yl)-1,2,5,6-tetrahydro-1-methylpyridine oxalate] | 0.6
30 | CCCCCSc1nsnc1C1=CCCN(C)C1 [Compound 66, 3-(4-pentylthio-1,2,5-thiadiazol-3-yl)-1,2,5,6-tetrahydro-1-methylpyridineoxalate] | 1.8
31 | CCCCCCSc1nsnc1C1=CCCN(C)C1.O=C(O)C(=O)O [Compound 67, 3-(4-hexylthio-1,2,5-thiadiazol-3-yl)-1,2,5,6-tetrahydro-1-methylpyridine oxalate] | 1.6
